We go through one compound from patent publication US20100168085A1, “Dopamine and agonists and antagonists thereof for modulation of suppressive activity of CD4+CD25+ regulatory T cells” (YESA RESEARCH AND DEVELOPMENT CO. LTD. at the Weizmann …, priority 2003, published 2010).

Assay [1] has as its system IL-2 production by Treg and Teff. The conditions noted are these: media conditioned 48 h, without mrIL-2. As for the experimental part: (x) Enzyme-linked immunosorbent assay. Treg or Teff (0.5×10^6 cells/ml) were cultured for 48 h in the presence of anti-CD3 and anti-CD28. After 48 h the cells were centrifuged and their supernatants were collected and sampled. Concentrations of IL-2 in the samples were determined by the use of sandwich enzyme-linked immunosorbent assay (ELISA) kits (R&D Systems, Minneapolis, Minn.). For detection of secreted IL-10 cells were centrifuged every 24 h and replaced with a fresh medium. Supernatants obtained from cells after 24, 48 and 72 h in culture were subjected to ELISA kit (Diaclone Research, Fleming, France). The plates were developed using a 3,3′,5,5′-tetramethyl-benzidine liquid substrate system (Sigma, St. Louis, Mo.). The reaction was stopped by adding 1M H3PO4. Results for each experiment were calculated as the amount of secreted cytokine per 1 ml of sample, after subtraction of the background levels of the medium.
It should be noted that activation of both T cell populations was carried out in the absence of mrIL-2.

The subject of another assay is solid tumor cells M2R. Conditions: Treg 2×10^6 cells exposed to dopamine 10^−5 M. The source says: In another experiment, mice (n=10) were inoculated with solid tumor cells M2R, and received an immediate injection of Treg (2×10^6 cells) with and without exposure to dopamine (10^−5M). Control animals (n=10) received an injection of vehicle (PBS) following cancer cells inoculation.

Assay [2] concerns phospho-ERK1/2 in Treg and Teff. Put plainly: ERK1/2 phosphorylation (intracellular FACS staining, Western blot). It counts as cell-based, mouse. A general note: A western blot detects proteins with antibodies after separation by electrophoresis.
Method: (ix) FACS analysis of intracellular labeling of phosphorylated form of ERK. T-cell subpopulations were fixed in 1.5% formaldehyde for 10 min at room temperature, washed, resuspended with vortexing in cold 100% methanol, and incubated for 1 h at 4° C. The cells were then washed with PBS containing 1% bovine serum albumin (BSA) and resuspended in 100 μL of PBS/BSA, and 12.5 μL of anti-phosphoERK1 & 2 (BioSource) was added for 20 min at room temperature. The cells were then washed, resuspended in PBS, and analyzed by FACSCalibur (Becton-Dickinson). As a negative control we incubated the phospho-peptide for 20 min with its antibody and then added the mixture to T cells.
(xix) Western blotting. Cells were stimulated for 20 min with anti-CD3 and anti-CD28 antibodies in the presence or absence of dopamine or SKF-38393. Cell lysates were prepared using RIPA lysis buffer (50 mM Tris, pH 8; 0.1% SDS; 0.5% deoxycholate; 1% NP40; 500 mM NaCl; 10 mM MgCl2) and were then kept on ice for 10 min before being vortexed and centrifuged. Supernatants were collected and 5× sample buffer (containing 25 mM Tris pH 6.8, 2% sodium dodecyl sulfate (SDS), 10% glycerol, 0.1% bromophenol blue, 0.5 M β-mercaptoethanol) was added prior to boiling. Cell extracts were separated by SDS-PAGE (10% polyacrylamide), and blotted onto nitrocellulose. Activated ERK1/2 was detected by probing blots with a 1:30,000 dilution of monoclonal antibody. Total ERK protein was detected by using a 1:10,000 dilution of a polyclonal rabbit antibody. The blots were developed by horseradish peroxidase-conjugated anti-mouse or anti-rabbit Fab and ECL (Amersham). Signals were quantified using NIH Image 1.62.
Treg were activated for 20 min in the presence or absence of dopamine (10^−5 M), and were then subjected to intracellular phosphoprotein staining (Perez and Nolan 2002) and analyzed by flow cytometry. […] As a measure of the background nonspecific staining of the phosphorylated ERK we used a specific peptide of phospho-ERK, which competes for binding of the antibody. The intracellular staining procedure for phospho-ERK detection by FACS was validated by the use of Teff incubated with 20 μM phorbol 12-myristate 13-acetate (PMA), known to stimulate the activity of protein kinase C (PKC) (data not shown).
The subject of another assay is Foxp3 expression in Treg. The conditions noted are these: 2 h exposure, analysed after 30 min or 24 h. The text has this:
(§1) (xx) Polymerase chain reaction (PCR). Total RNA was purified with the RNeasy Mini Kit (Qiagen, Germantown, Md.) and transcribed into cDNA using poly dT primers. For PCR the following primers were used: […]

In another assay the test system is CCR-4 mRNA in Treg. The conditions noted are these: 2 h with dopamine.
Excerpt: as §1

The test system of assay [3] is D1-R transcripts in Treg and Teff. The conditions noted are these: 2 h with 10^−5 M. How it is done:
as §1
This was done by assaying the expression of the dopamine type-1 receptors, D1-R and D5-R, in Treg and Teff, in the absence and in the presence of dopamine (incubation of the cells for 2 h with 10^−5 M dopamine).

Assay [4] relates to migration of Treg towards MDC (CCL22).
Method: The migration of T cells across polycarbonate filters (pore size 5 μm, diameter 6.5 mm) towards SDF-1 and MDC (CCL22) was assayed in 24-well Transwell chambers (Costar, Corning, Corning, N.Y.). T lymphocytes (1.67×10^6 cells/mL) were suspended in RPMI/0.1% BSA, and 150 μL of the cell suspension was added to the upper chamber after incubation with or without dopamine (90 min, 37° C.). Chemokines were added to the lower chamber at concentrations of 1 μg/mL SDF-1 (CytoLab, Israel) and 0.25 μg/mL MDC (R&D Systems). The plates were incubated for 90 min at 37° C. in 9.5% CO2. […] The numbers of migrating T cells were measured by flow cytometer acquisition for a fixed time (60 s). To calculate specific migration, the number of cells in each subpopulation in the absence of chemokine was subtracted from the number in the corresponding cell subpopulation that migrated in the presence of chemokines. The number of migrating CD4^+CD25^+ T cells was calculated as a percentage of the total T cell population before migration. For migration of purified population we used a similar protocol.
We therefore examined whether exposure to dopamine would also affect Treg migration. For this experiment we used a normal population of CD4^+ T cells, of which Treg (CD4^+CD25^+) accounts for approximately 11% (FIG. 4e).
To examine the direct effect of dopamine on the migration of Treg, we assayed the effect of dopamine on the migration of purified Treg towards MDC. The migratory Treg were stained for CD4 to ensure that cell debris and aggregates would not be counted among them.

As to `NCCc1ccc(O)c(O)c1` [dopamine, 3,4-dihydroxyphenethylamine], in assay [1], the “IL-2 level secreted by Teff” value is listed as “not affected” and the “Production of IL-2 by Treg” value is recorded as “not detected”. Besides, the “Tumor development in mice injected with Treg exposed to dopamine” value with solid tumor cells M2R was “did not differ from control mice”. The “Phosphorylated ERK in activated Treg, flow cytometry” value in assay [2] (10^−5 M, activation 20 min) is given as “Significantly less phosphorylated ERK”. The “Phospho-ERK1/2 levels in Teff, Western blot” value in assay [2] (activation 20 min) is reported as “did not cause a significant change”. Further, the “Phospho-ERK1/2 in activated Treg, Western blot” value in assay [2] (activation with anti-CD3 and anti-CD28 for 20 min) is reported as “down-regulated”. In addition, the “Foxp3 expression in Treg” value in the assay on Foxp3 expression in Treg is “no significant change”. In the assay with CCR-4 mRNA in Treg, the “Expression of CCR-4 in Treg” value is recorded as “decreased”. Further, the “Number of D1-R transcripts in Treg or Teff” value in assay [3] is reported as “did not significantly alter”. In addition, the “Migration of purified Treg towards MDC” value in assay [4] was “almost completely abolished”. Moreover, the “Treg (CD4+CD25+) share of CD4+ cells migrating towards MDC” value in assay [4] (after exposure of CD4+ population to dopamine, 17% without dopamine) is on record as “approximately 10%”. Also, in assay [4] (data not shown), the “Migration of Teff” value is on record as “no effect”.
